From patent publication US20090062401A1, “DECALINE-DERIVED COMPOUNDS AS […] ACTIVE AGENTS” (UNIVERSITAT DORTMUND, priority 2004, published 2009) come the findings set out here.

Common to all, as to format: biochemical
One test deals with T1, Cdc25A (Homo sapiens, UniProt P30304).
T1 sequence (P30304 1-524): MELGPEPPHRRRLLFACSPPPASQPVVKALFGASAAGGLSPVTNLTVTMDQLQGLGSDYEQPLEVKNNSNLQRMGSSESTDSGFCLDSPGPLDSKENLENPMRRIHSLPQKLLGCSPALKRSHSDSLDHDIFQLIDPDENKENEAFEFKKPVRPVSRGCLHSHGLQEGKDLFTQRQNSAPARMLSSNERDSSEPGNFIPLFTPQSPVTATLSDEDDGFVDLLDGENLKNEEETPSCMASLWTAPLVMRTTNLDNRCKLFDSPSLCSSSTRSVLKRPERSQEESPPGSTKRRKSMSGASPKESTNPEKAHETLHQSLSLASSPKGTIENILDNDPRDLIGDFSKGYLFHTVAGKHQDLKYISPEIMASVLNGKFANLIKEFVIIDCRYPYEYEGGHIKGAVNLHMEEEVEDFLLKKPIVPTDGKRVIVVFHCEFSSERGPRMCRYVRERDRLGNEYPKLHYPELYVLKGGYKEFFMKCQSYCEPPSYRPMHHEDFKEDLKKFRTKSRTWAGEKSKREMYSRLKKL
In words: Cdc25A phosphatase inhibition. From the text: Assay protocols for Cdc25A, 11βHSD1, 11βHSD2, and AChE are described in detain in the publication of Koch M A, Wittenberg L O, Basu S, Jeyaraj D A, Gourzoulidou E, Reinecke K, Odermatt A, Waldmann H (Proc. Natl. Acad. Sci. U.S.A. 2004 Nov. 30; 101(48):16721-6) and in Koch M A et al., Proc. Natl. Acad. Sci. U.S.A. 2005 Nov. 29; 102 (48):17272-7.

The target in another test is VHR (Homo sapiens, UniProt P51452). In words: VHR phosphatase inhibition, general phosphatase assay using para-nitrophenylphosphate. Particulars: read-out: IC50 Target VHR. From the text: (§1) Assays protocols for the other enzymes mentioned herein (MtPTPA, PP1, VHR, PTP1B) are disclosed in Schweizer R A S, Atanasov, G A, Frey B M, and Odermatt A, Mol. Cell. Endocrinol. 2003, 212, 41-49 and Barratte, B., Meijer L., Galaktionov K. & Beach D, Anticancer Res. 1992, 12, 873-880. For determination of the phosphatase activity, a general phosphatase assay using para-nitrophenylphosphate was applied.
Sequence of VHR (P51452 whole entry, species assumed): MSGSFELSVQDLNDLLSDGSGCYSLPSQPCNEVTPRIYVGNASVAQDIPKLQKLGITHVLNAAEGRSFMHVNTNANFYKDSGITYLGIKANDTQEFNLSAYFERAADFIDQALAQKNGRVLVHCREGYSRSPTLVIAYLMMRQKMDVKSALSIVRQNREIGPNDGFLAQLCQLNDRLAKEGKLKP

A further test has as its target T2, PTP1B (Homo sapiens, UniProt P18031).
T2 sequence (P18031 1-435): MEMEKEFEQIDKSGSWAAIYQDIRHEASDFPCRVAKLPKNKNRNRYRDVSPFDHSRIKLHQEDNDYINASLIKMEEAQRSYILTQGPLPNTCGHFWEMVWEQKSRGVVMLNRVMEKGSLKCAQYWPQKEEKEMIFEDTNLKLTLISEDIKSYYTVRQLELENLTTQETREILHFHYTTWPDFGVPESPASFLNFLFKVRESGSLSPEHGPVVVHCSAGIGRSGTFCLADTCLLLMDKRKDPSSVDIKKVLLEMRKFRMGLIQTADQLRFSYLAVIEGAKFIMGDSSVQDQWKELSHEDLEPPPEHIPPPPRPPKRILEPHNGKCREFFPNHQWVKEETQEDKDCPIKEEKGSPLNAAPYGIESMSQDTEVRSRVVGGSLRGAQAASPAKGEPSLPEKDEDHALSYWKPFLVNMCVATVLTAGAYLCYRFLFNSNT
In words: PTP1B phosphatase inhibition, general phosphatase assay using para-nitrophenylphosphate. The note with it: read-out: IC50 Target PTP1B.
Source text: as §1

Like-named read-outs stand apart in the source and are kept apart here.

As a reminder, the IC50 is the midpoint of a concentration-inhibition curve. For the compound `CC1C(=O)/C(=C/c2cccn2C)C[C@@]2(C)C1CCC[C@@H]2O` (stereo partly drawn) [Compound 86, (E,4aS,5S)-Octahydro-5-hydroxy-1,4a-dimethyl-3-[(1-methyl-1H-pyrrol-2-yl)methylen]naphthalen-2(1H)-one], the IC50 on Cdc25A (read-out: IC50 Target Cdc25A) lay in the range of 10 to 50 µM.

As to `C=CC[C@@]12C(=CC(=O)/C(=C/c3ccccc3C#CCCCCCCCCCCCCCC)[C@@H]1C)CCC[C@@H]2O` [Compound 326, (3E,4R,4aS,5S)-3-[2-(Hexadec-1-inyl)benzyliden]-4a-allyl-4,4a,5,6,7,8-hexahydro-5-hydroxy-4-methylnaphthalen-2(3H)on], on Cdc25A (read-out: IC50 Target Cdc25A), the IC50 was 10 to 50 µM.

In the case of `CCCCCCCCCCCCCCC#Cc1ccccc1/C=C1\C[C@@]2(C)C(=CC1=O)CCC[C@@H]2O` [Compound 332, (3E,4aS,5S)-3-[2-(Hexadec-1-inyl)benzyliden]-4,4a,5,6,7,8-hexahydro-5-hydroxy-4a-methylnaphthalen-2(3H)-one], the IC50 at Cdc25A (read-out: IC50 Target Cdc25A) was in the range of 10 to 50 µM.

Take `C[C@]12C/C(=C\c3ccc(C#CC4(O)CCCCC4)cc3)C(=O)C=C1CCC[C@@H]2O` [Compound 138, (3E,4aS,5S)-3-{4-[2-(1-Hydroxycyclohexyl)ethinyl]benzyliden}-4,4a,5,6,7,8-hexahydro-5-hydroxy-4a-methylnaphthalen-2(3H)-one]: the IC50 on VHR is 10 to 50 µM; at Cdc25A (read-out: IC50 Target Cdc25A), < 10 µM.

With `CC1=C2CCC[C@H](O)[C@@]2(C)CC(=Cc2ccc(C#Cc3ccncc3)cc2)C1=O` [Compound 395, (4aS,5S)-5-Hydroxy-1,4a-dimethyl-3-(4-pyridin-4-ylethynyl-benzylidene)-4,4a,5,6,7,8-hexahydro-3H-naphthalen-2-one], the IC50 on VHR and on PTP1B was 10 to 50 µM each time.

Consider `COc1ccc(/C=C2\C[C@@]3(C)C(=C(C)C2=O)CCC[C@@H]3O)c(C)c1` [Compound 16, (3E,4aS,5S)-3-(4-Methoxy-2-methylbenzyliden)-4,4a,5,6,7,8-hexahydro-5-hydroxy-1,4a-dimethylnaphthalen-2(3H)-one], for which the IC50 at VHR and at PTP1B was 10 to 50 µM throughout.

Regarding `COCC#Cc1cccc(/C=C2\C[C@@]3(C)C(CCC[C@@H]3O)C(C)C2NC2CCCCC2)c1` (stereo partly drawn) [Compound 346, (E,1S,8aS)-7-[3-(3-Methoxyprop-1-inyl)benzyliden]-6-(cyclohexylamino)-decahydro-5,8a-dimethylnaphthalen-1-ol], the half-maximal inhibitory concentration (IC50) on Cdc25A (read-out: IC50 Target Cdc25A) fell in the range of 10 to 50 µM.

For the compound `CCCCCCC#Cc1ccc(/C=C2\C[C@@]3(C)C(=C(C)C2=O)CCC[C@@H]3O)cc1` [Compound 91, (3E,4aS,5S)-3-[4-(Oct-1-inyl)benzyliden]-4,4a,5,6,7,8-hexahydro-5-hydroxy-1,4a-dimethylnaphthalen-2(3H)-one], at Cdc25A (read-out: IC50 Target Cdc25A), the IC50 was < 10 µM.

Consider `CC1=C2CCC[C@H](O)[C@@]2(C)C/C(=C\c2sccc2C)C1=O` [Compound 33], for which the IC50 on VHR and at PTP1B was 10 to 50 µM in each case.

In the case of `CC1=C2CCC[C@H](O)[C@@]2(C)C/C(=C\c2ccc(C#CC3(O)CCCCC3)cc2)C1=O` [Compound 48, (3E,4aS,5S)-3-{4-[2-(1-Hydroxycyclohexyl)ethinyl]benzyliden}-4,4a,5,6,7,8-hexahydro-5-hydroxy-1,4a-dimethylnaphthalen-2(3H)-one], the 50% inhibitory concentration (IC50) at Cdc25A (read-out: IC50 Target Cdc25A) lay in the range of 10 to 50 µM.

Take `CC1=C2CCC[C@H](O)[C@@]2(C)C/C(=C\C[C@]2(O)C[C@@H](O)[C@@H](O)[C@H](O)C2)C1=O` [Compound 58, (3E,4aS,5S)-4,4a,5,6,7,8-Hexahydro-5-hydroxy-3-{2-[(1S,3R,4S,5R)-1,3,4,5-tetrahydroxycyclohexyl]-ethyliden}-1,4a-dimethylnaphthalen2(3H)-one]: the IC50 on VHR and on PTP1B was 10 to 50 µM throughout.

Consider `CC1=C2CCCC3(OCCO3)C2(C)CC/C1=C1/C=CC(=O)O1` (stereo not drawn) [Compound 415, (5E)-5-(5′,8a′-dimethyl-3′,4′,8′,8a′-tetrahydro-2′H-spiro[1,3-dioxolane-2,1′-naphthalen]-6′(7′H)-ylidene)furan-2(5H)-one], for which the IC50 on Cdc25A (read-out: IC50 Target Cdc25A) is 10 to 50 µM.

For the compound `C[C@]12C/C(=C\c3ccc(C#C[Si](C)(C)C)cc3)C(=O)C=C1CCC[C@@H]2O` [Compound 137, (3E,4aS,5S)-3-{4-[2-(Trimethylsilyl)ethinyl]benzyliden}-4,4a,5,6,7,8-hexahydro-5-hydroxy-4a-methylnaphthalen-2(3H)-one], the figures for the half-maximal inhibitory concentration (IC50) at VHR and at Cdc25A were 10 to 50 µM and < 10 µM, respectively.

In the case of `C#CCCCCCC#Cc1ccc(/C=C2\C[C@@]3(C)C(=C(C)C2=O)CCC[C@@H]3O)cc1` [Compound 42, (3E,4aS,5S)-3-[4-(Nona-1,8-diinyl)benzyliden]-4,4a,5,6,7,8-hexahydro-5-hydroxy-1,4a-dimethyl-naphthalen-2(3H)-one], the IC50 on Cdc25A (read-out: IC50 Target Cdc25A) was < 10 µM.

As to `CCCCCCCCCCCCCCC#Cc1ccc(/C=C2\C[C@@]3(C)C(=C(C)C2=O)CCC[C@@H]3O)cc1` [Compound 43, (3E,4aS,5S)-3-[4-(Hexadec-1-inyl)benzyliden]-4,4a,5,6,7,8-hexahydro-5-hydroxy-1,4a-dimethyl-naphthalen-2(3H)-one], the IC50 on VHR and at PTP1B was 10 to 50 µM in each case.

For the compound `CCCCCCC#Cc1ccccc1/C=C1\CCC2C(C)C(O)CC[C@]2(C)C1NC1CCCCC1` (stereo partly drawn) [Compound 323, (E,4aS)-6-[2-(Oct-1-inyl)benzyliden]-5-(cyclohexylamino)-decahydro-1,4a-dimethylnaphthalen-2-ol], the IC50 on Cdc25A (read-out: IC50 Target Cdc25A) lay in the range of 10 to 50 µM.

As to `COCC#Cc1ccccc1/C=C1\C[C@@]2(C)C(=CC1=O)CCC[C@@H]2O` [Compound 334, (3E,4aS,5S)-3-[2-(3-Methoxyprop-1-inyl)benzyliden]-4,4a,5,6,7,8-hexahydro-5-hydroxy-4a-methylnaphthalen-2(3H)-one], the IC50 at Cdc25A (read-out: IC50 Target Cdc25A) was 10 to 50 µM.

Consider `C=CC[C@]12C(CCC[C@@H]1O)C(C)C(=O)/C(=C/c1cccc(C#CCOC)c1)[C@@H]2C` (stereo partly drawn) [Compound 349, (E,4R,4aR,5S)-3-[3-(3-Methoxyprop-1-inyl)benzyliden]-4a-allyl-octahydro-5-hydroxy-1,4-dimethylnaphthalen-2(1H)-one], for which the IC50 on Cdc25A (read-out: IC50 Target Cdc25A) lay within 10 to 50 µM.

With `CC1=C2CCC[C@H](O)[C@@]2(C)C/C(=C\c2cccs2)C1=O` [Compound 30, (3E,4aS,5S)-4,4a,5,6,7,8-Hexahydro-5-hydroxy-1,4a-dimethyl-3-[(thiophen-2-yl)methylen]naphthalen-2(3H)-one], the 50% inhibitory concentration (IC50) on VHR and at PTP1B was 10 to 50 µM each time.

With `CC1=C2CCCC(=O)[C@@]2(C)CC/C1=C1/C=CC(=O)O1` [Compound 401, (2E,4aS)-5-(1,4a-Dimethyl-5-oxo-4,4a,5,6,7,8-hexahydro-3H-naphthalen-2-ylidene)-5H-furan-2-one], the IC50 at VHR and on Cdc25A (read-out: IC50 Target Cdc25A) was 10 to 50 µM throughout.

Consider `C=C(C)C#Cc1ccc(/C=C2\C[C@@]3(C)C(=C(C)C2=O)CCC[C@@H]3O)cc1` [Compound 71, (3E,4aS,5S)-3-[4-(3-Methylbut-3-en-1-inyl)benzyliden]-4,4a,5,6,7,8-hexahydro-5-hydroxy-1,4a-dimethylnaphthalen-2(3H)-on], for which the IC50 at Cdc25A (read-out: IC50 Target Cdc25A) was in the range of 10 to 50 µM.

With `CC1=C2CCC[C@H](O)[C@@]2(C)C/C(=C\c2ccco2)C1=O` [Compound 34, (3E,4aS,5S)-3-[(Furan-2-yl)methylen]-4,4a,5,6,7,8-hexahydro-5-hydroxy-1,4a-dimethylnaphthalen-2(3H)-one], on PTP1B, the IC50 lay in the range of 10 to 50 µM.

As for `CC1=C2CCC[C@H](O)[C@@]2(C)C/C(=C\c2ccc(C#CCCCc3ccccc3)cc2)C1=O` [Compound 72, (3E,4aS,5S)-3-[4-(5-Phenylpent-1-inyl)benzyliden]-4,4a,5,6,7,8-hexahydro-5-hydroxy-1,4a-dimethylnaphthalen-2(3H)-one], the concentration for half-maximal inhibition (IC50) on Cdc25A (read-out: IC50 Target Cdc25A) lay within 10 to 50 µM.

With `CC1=C2CCC[C@H](O)[C@@]2(C)C/C(=C\c2ccc(OCc3ccccc3)cc2)C1=O` [Compound 66, (3E,4aS,5S)-3-[4-(Benzyloxy)benzyliden]-4,4a,5,6,7,8-hexahydro-5-hydroxy-1,4a-dimethylnaphthalen-2(3H)-one], the IC50 on PTP1B lay in the range of 10 to 50 µM.
